Assay results taken from patent US7186701B2, “Dehydrating agent and method for dehydrating moist article using the agent and dehydrated article obtained by the method” (Kabushiki Kaisha Hayashibara Seibutsu Kagaku Kenkyujo, priority 2001, dated 2007).

What was measured:
[1] = Amino carbonyl reaction with glycine; type: physicochemical; conditions: 10% (w/v) with 1% (w/v) glycine, pH 7.0, 120° C.
Description: Four milliliter aliquots of the resulting solution were placed in glass test tubes, sealed, and heated at 120° C. for 30 to 90 min. After allowing to stand for cooling at ambient temperature, each of the resulting solutions was measured for coloration degree to examine their amino carbonyl reactivity. The coloration degree was evaluated based on the absorbance in a cell with 1-cm light pass at a wavelength of 480 nm.

[2] = tested on: Bifidobacterium adolescentis JCM 1275; assay: Assimilation test; type: cell-based; conditions: 0.5% saccharide in PYF medium, 37° C., four days, anaerobic
[3] = tested on: internal content of rat cecum; assay: Fermentation test; type: in vitro ADME
Description: The internal content of rat cecum was collected by anesthetizing a Wister male rat with ether, anatomizing the rat, collecting the internal content under anaerobic conditions, and suspending the resultant with 4-fold volumes of a 0.1 M aqueous solution of sodium bicarbonate. The cyclotetrasaccharide was added to the internal content of rat cecum in an amount of about 7% by weight, and the levels of cyclotetrasaccharide remained just after and 12 hours after the addition of the internal content were quantified on gas chromatography.

[4] = tested on: Eubacterium aerofaciens ATCC 25986; assay: Assimilation test; type: cell-based; conditions: 0.5% saccharide in PYF medium, 37° C., four days, anaerobic
[5] = Saturation concentration of cyclotetrasaccharide in water; type: physicochemical
Text: The resulting each saturated solution of cyclotetrasaccharide was membrane filtered to remove undissolved cyclotetrasaccharide, and each filtrate was then examined for moisture content by the drying loss method to determine a saturation concentration of cyclotetrasaccharide at respective temperatures.

## OCC1OC2OCC3O[C@H](O[C@H]4C(O)C(CO)OC(OCC5O[C@H](O[C@@H](C1O)C2O)C(O)C(O)[C@@H]5O)C4O)C(O)C(O)[C@@H]3O (stereo partly drawn) [cyclotetrasaccharide, cyclo{→6)-α-D-glucopyranosyl-(1→3)-α-D-glucopyranosyl-(1→6)-α-D-glucopyranosyl-(1→3)-α-D-glucopyranosyl-(1→}]
[1]; heating time 0 min
  Coloration degree (A480 nm): 0.00 A480 nm
[1]; heating time 30 min
  Coloration degree (A480 nm): 0.00 A480 nm
[1]; heating time 60 min
  Coloration degree (A480 nm): 0.00 A480 nm
[1]; heating time 90 min
  Coloration degree (A480 nm): 0.00 A480 nm
[2]
  Assimilability: − (judged as negative (−) when the post culture had a pH of 6.0 or higher)
[3]; 12 hours after the addition
  cyclotetrasaccharide remained intact: 93%
  level of cyclotetrasaccharide remained: 63.0 mg per one gram of the internal content of rat cecum
[3]; just after the addition
  level of cyclotetrasaccharide remained: 68.0 mg per one gram of the internal content of rat cecum
[4]
  Assimilability: − (judged as negative (−) when the post culture had a pH of 6.0 or higher)
[5]; 10 ° C.
  Saturation concentration (%): 30.3%
[5]; 30 ° C.
  Saturation concentration (%): 34.2%
[5]; 50 ° C.
  Saturation concentration (%): 42.6%
[5]; 70 ° C.
  Saturation concentration (%): 53.0%
[5]; 90 ° C.
  Saturation concentration (%): 70.5%
